The source of these data is paper PMC12169610 (Journal of Medicinal Chemistry, 2025).

For data set [1], the system named is P-gp. In words: in vitro. In kind it is in vitro ADME. To be noted: pig, LLC-PK1.
Data set [2] concerns fasted rat. The data set is described as follows: Acute refeeding assay. The format is in vivo. To be noted: for Inhibition of Food Intake at 1 h (%), 5 mg/kg dose: 5 mg/kg PO.
The conditions of data set [3]: predicted from PK data across species.
Data set [4] has as its target T1, 5-HT2CR (Homo sapiens, UniProt P28335).
T1 sequence (P28335 33-458): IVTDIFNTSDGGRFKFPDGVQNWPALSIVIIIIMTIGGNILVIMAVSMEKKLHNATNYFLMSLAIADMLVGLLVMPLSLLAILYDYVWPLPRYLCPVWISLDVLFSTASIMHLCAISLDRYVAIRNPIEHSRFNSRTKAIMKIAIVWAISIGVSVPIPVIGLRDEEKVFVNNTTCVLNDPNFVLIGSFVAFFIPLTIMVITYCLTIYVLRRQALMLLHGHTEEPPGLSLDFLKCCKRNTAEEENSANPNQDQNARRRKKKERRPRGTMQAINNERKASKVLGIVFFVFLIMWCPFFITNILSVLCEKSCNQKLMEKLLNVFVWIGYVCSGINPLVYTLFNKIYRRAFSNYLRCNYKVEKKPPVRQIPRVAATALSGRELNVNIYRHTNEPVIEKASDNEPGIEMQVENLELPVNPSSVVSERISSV
In kind it is binding.

Data set [5] can be described thus: in vivo. To be noted: cynomolgus monkey, iv, 2 mg/kg.
Data set [6] has as its system major CYP enzymes. The data set is described as follows: CYP time-dependent inhibition.
In data set [7] the target is T2, CYP2B6 (Homo sapiens, UniProt P20813).
T2 sequence (P20813 1-491): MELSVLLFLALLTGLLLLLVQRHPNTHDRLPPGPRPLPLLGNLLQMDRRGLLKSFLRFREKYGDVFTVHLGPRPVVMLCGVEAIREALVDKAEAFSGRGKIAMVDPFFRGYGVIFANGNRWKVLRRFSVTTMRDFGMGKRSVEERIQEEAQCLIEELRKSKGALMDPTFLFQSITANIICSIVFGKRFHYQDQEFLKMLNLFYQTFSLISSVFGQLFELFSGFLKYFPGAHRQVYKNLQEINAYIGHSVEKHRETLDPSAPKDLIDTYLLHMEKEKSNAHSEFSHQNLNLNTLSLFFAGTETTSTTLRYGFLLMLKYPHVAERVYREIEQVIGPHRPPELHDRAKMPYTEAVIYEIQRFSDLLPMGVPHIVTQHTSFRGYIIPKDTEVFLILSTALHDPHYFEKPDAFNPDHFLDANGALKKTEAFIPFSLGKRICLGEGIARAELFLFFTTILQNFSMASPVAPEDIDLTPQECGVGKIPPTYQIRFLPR
In words: CYP inhibition. The format is in vitro ADME.

Data set [8] deals with CYP2D6 (Homo sapiens, UniProt P10635).
Data set [9] relates to Eurofins safety screen panel. To be noted: at 10 μM.
The target in data set [10] is CYP2C9 (Homo sapiens, UniProt P11712).
For data set [11], the target named is T3, CYP2C8 (Homo sapiens, UniProt P10632).
T3 sequence (P10632 1-490): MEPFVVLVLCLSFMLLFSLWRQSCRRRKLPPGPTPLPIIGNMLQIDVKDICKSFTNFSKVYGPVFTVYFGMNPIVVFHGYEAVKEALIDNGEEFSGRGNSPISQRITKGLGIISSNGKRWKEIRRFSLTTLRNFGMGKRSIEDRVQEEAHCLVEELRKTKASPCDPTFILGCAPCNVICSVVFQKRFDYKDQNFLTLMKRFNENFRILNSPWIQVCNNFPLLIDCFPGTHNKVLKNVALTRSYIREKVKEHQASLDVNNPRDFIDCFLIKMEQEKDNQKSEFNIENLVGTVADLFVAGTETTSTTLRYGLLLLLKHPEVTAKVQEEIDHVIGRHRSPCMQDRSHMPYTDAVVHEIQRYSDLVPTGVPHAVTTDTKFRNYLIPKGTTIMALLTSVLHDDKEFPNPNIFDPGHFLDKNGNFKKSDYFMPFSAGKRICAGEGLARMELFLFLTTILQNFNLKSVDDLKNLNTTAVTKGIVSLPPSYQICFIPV

Data set [12] concerns the target CYP3A4 (Homo sapiens, UniProt P08684).
Data set [13] deals with CYP2C19 (Homo sapiens, UniProt P33261).
The target of data set [14] is T4, CYP1A2 (Homo sapiens, UniProt P05177).
T4 sequence (P05177 1-516): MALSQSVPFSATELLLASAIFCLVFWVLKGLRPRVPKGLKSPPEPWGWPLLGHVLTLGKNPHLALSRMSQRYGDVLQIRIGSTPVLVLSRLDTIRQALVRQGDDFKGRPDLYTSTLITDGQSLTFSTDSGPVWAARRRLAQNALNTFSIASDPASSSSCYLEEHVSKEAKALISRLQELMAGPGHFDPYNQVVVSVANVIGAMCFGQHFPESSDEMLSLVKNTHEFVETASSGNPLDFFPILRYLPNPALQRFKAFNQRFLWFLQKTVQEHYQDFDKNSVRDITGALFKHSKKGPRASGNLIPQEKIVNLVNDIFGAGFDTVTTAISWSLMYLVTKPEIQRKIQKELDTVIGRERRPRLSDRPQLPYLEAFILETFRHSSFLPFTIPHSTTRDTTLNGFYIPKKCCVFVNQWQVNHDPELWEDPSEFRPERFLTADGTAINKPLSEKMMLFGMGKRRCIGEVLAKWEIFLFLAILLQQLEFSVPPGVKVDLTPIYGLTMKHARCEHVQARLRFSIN

Data set [15] can be described thus: Dynamic moisture sorption test. In kind it is physicochemical. To be noted: 90% relative humidity, 25 °C.

Where two headings read alike, the source gives them in different places. Marks after values point to notes of the source that are not given here. Some results are limits rather than exact numbers.

In general, Papp A→B refers to how fast a substance crosses the layer from the apical side. Low values mean slow passage, high ones fast passage. A word on the efflux ratio: it is the permeability from basolateral to apical divided by that in the opposite direction, in the common usage. Usually IC50 stands for the midpoint of a concentration-inhibition curve. Low values mean higher potency, high ones lower potency.

Chain of CYP3A4 (P08684 whole entry): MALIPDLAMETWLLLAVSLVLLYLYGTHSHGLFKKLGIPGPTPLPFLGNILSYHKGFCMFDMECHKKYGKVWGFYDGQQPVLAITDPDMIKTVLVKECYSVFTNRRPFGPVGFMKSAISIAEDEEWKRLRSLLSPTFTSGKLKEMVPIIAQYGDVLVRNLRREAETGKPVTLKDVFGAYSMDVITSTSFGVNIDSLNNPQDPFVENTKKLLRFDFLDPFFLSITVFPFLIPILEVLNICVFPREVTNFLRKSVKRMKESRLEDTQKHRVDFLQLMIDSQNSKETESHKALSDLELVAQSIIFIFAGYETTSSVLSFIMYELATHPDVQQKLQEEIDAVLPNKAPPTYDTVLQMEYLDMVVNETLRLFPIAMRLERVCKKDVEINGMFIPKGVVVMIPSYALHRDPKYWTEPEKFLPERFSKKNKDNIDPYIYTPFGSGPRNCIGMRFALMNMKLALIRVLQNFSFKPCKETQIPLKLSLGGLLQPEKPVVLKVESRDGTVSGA
Chain of CYP2D6 (P10635 whole entry): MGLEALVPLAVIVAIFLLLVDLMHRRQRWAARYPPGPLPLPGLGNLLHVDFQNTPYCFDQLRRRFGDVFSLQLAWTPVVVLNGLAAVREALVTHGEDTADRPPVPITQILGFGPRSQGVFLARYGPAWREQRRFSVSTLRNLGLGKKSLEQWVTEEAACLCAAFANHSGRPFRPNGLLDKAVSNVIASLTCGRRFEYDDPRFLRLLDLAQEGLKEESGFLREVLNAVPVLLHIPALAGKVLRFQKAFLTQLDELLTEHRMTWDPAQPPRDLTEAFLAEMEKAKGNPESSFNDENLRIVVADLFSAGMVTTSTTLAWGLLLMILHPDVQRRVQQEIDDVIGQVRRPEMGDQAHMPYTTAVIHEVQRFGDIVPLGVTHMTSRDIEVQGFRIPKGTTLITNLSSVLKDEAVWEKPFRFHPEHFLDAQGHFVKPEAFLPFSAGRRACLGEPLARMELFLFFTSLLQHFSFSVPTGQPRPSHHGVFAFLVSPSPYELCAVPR
Chain of CYP2C19 (P33261 whole entry): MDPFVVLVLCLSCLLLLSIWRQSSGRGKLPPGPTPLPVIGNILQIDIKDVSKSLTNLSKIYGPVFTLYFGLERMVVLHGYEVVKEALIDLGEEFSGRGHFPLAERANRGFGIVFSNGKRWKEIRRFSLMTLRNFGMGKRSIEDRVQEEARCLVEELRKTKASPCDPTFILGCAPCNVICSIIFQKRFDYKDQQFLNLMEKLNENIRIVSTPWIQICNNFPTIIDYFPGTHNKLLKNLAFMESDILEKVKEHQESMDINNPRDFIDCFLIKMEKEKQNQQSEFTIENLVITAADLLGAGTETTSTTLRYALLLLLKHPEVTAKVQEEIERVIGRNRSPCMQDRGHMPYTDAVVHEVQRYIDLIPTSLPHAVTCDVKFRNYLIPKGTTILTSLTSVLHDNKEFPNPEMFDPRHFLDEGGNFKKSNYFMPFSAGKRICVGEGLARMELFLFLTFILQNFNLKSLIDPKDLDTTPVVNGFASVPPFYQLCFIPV
Chain of CYP2C9 (P11712 whole entry): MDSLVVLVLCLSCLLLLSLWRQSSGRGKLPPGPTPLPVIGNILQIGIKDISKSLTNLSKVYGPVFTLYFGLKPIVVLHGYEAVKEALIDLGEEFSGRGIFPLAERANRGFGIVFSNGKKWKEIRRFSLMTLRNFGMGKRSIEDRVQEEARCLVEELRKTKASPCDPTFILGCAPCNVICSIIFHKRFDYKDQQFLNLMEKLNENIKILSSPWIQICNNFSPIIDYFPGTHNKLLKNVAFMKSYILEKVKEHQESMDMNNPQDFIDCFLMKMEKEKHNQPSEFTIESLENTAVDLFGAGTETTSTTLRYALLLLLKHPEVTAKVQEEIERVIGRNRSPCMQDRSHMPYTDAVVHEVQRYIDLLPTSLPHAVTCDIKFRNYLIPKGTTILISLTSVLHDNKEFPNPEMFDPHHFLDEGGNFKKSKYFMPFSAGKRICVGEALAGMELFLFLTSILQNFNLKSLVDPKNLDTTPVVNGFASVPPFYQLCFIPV

On to `CNC(=O)c1ccc2c3c1C(CC(F)(F)F)CN3CCNC2` (single isomer, unassigned; (+)) [(+)-19a], for which the apparent permeability from apical to basolateral (Papp A→B) in data set [1] is 14.8 ×10⁻⁶ cm/s.

For `CCCNC(=O)c1ccc2c3c1C(CC(F)(F)F)CN3CCNC2` (single isomer, unassigned; (+)) [(+)-19c], the “Inhibition of Food Intake at 1 h (%) with 10 mg/kg po” value in data set [2] (10 mg/kg PO) was 53 ^c %.

Compound `CCC1CN2CCNCc3ccc(C(=O)NC)c1c32` (single isomer, unassigned; (+)) [(+)-19i] registered a Papp A→B in data set [1] of 7.73 ×10⁻⁶ cm/s.

With `CCC1CN2CCNCc3ccc(C(=O)NCC(F)F)c1c32` (single isomer, unassigned; (+)) [(+)-19k, (+)-N-(2,2-Difluoroethyl)-7-ethyl-1,2,3,4,6,7-hexahydro-[1,4]diazepino[6,7,1-hi]indole-8-carboxamide], in data set [1], the Papp A→B stood at 12.8 ×10⁻⁶ cm/s and the efflux ratio was found to be 2.16. For the same compound, the “Inhibition of Food Intake at 1 h (%), 5 mg/kg dose” value in data set [2] is recorded as 27 ^d %.

In the case of `CNC(=O)c1ccc2c3c1CCN3CCNC2` [7b, N-Methyl-1,2,3,4,6,7-hexahydro-[1,4]diazepino[6,7,1-hi]indole-8-carboxamide], in data set [3], the “Predicted half-life in human by allometric scaling” value was 3 h. In addition, the “Hypophagic effect after preadministration of 5-HT2CR antagonist SB242084” value in [2] (10 mg/kg po, 1 h, SB242084 1 mg/kg PO) was “blocked”.

On to `CSCCNC(=O)c1ccc2c3c1CCN3CCNC2` [7j, N-(2-(Methylthio)ethyl)-1,2,3,4,6,7-hexahydro-[1,4]diazepino[6,7,1-hi]indole-8-carboxamide], for which the “Selectivity for 5-HT2CR over 5-HT2AR and 5-HT2BR in binding assays” value in data set [4] was greater than 500 fold.

On to `O=C(NCCOc1ccccc1)c1ccc2c3c1CCN3CCNC2` [7p, N-(2-Phenoxyethyl)-1,2,3,4,6,7-hexahydro-[1,4]diazepino[6,7,1-hi]indole-8-carboxamide], for which the “Selectivity for 5-HT2CR over 5-HT2AR and 5-HT2BR in binding assays” value in data set [4] (125I-DOI binding assay) is listed as roughly 100 fold.

`C[C@H]1CN2CCNCc3ccc(C(=O)NCC(F)F)c1c32` [(+)-19m, (+)-N-(2,2-Difluoroethyl)-7-methyl-1,2,3,4,6,7-hexahydro-[1,4]diazepino[6,7,1-hi]indole-8-carboxamide] displayed a Rat brain protein-binding of 53%. For the same compound, the “Predicted half-life in human by allometric scaling” value in data set [3] is “approximately 7 h”. Further, the CL renal in data set [5] is 1.8 mL/h/kg. Besides, in data set [1], the Papp A→B stood at 8.9 ×10⁻⁶ cm/s. The CYP time-dependent inhibition result in data set [6] is “no time-dependent inhibition”. In data set [2], the “Inhibition of Food Intake at 1 h (%), 5 mg/kg dose” value is 81 ^d %. Further, the IC50 in [7] was greater than 30 µM. In data set [8], this compound yielded a half-maximal inhibitory concentration (IC50) greater than 30 µM. Moreover, the “Binding against >140 target Eurofins safety screen panel” value in [9] is on record as less than 25%. For the same compound, the half-maximal inhibitory concentration (IC50) in data set [10] was greater than 30 µM. In [11], this compound gave a 50% inhibitory concentration (IC50) greater than 30 µM. Also, the IC50 in [12] is greater than 30 µM. Further, in data set [13], the IC50 is greater than 30 µM. Also, in data set [14], the IC50 was greater than 30 µM.

As to `C[C@H]1CN2CCNCc3ccc(C(=O)NCC(F)F)c1c32.Cl` [(+)-19m. HCl], the “Weight gain in dynamic moisture sorption test” value in data set [15] is given as less than 0.1%.
